# pKd: −log10 of the molar value. Calls of active or inactive are those of the source. Rule as the data show it, for most assays here: actives have a measured Kd and inactives only a lower limit.
# What was measured:
# [1] = molecular target: Mitotic checkpoint serine/threonine-protein kinase BUB1 (Homo sapiens, UniProt O43683)
# [2] = molecular target: T1, AarF domain-containing protein kinase 1 (Homo sapiens, UniProt Q86TW2)
# T1 sequence (Q86TW2 whole entry): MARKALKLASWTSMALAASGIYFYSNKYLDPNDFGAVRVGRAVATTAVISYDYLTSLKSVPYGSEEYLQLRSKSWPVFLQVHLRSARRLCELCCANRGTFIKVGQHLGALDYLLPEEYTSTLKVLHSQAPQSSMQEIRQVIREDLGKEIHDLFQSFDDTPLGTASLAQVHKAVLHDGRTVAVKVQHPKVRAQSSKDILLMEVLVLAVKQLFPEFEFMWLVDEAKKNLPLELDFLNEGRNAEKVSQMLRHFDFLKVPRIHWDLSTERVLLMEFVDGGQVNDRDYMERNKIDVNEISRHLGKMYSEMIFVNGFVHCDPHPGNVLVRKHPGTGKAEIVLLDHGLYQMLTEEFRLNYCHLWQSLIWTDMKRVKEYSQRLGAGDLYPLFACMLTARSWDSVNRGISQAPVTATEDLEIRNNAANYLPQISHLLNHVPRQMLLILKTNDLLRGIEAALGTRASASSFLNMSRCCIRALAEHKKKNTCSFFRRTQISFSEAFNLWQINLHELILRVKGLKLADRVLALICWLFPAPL
# [3] = molecular target: Tyrosine-protein kinase FRK (Homo sapiens, UniProt P42685)
# [4] = molecular target: T2, Interleukin-1 receptor-associated kinase 4 (Homo sapiens, UniProt Q9NWZ3)
# T2 sequence (Q9NWZ3 whole entry): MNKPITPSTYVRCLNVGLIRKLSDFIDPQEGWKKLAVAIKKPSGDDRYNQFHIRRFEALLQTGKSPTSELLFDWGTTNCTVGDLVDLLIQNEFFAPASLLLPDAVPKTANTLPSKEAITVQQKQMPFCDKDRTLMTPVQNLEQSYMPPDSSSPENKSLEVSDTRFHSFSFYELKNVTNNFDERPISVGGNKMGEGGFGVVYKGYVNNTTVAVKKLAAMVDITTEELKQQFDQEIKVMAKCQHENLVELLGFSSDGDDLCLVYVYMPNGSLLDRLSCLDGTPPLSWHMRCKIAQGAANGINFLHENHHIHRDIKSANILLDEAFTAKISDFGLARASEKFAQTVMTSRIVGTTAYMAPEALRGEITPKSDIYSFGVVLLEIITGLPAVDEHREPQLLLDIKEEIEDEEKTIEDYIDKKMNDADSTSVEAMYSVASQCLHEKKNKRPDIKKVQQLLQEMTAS
# [5] = molecular target: T3, Bone morphogenetic protein receptor type-2 (Homo sapiens, UniProt Q13873)
# T3 sequence (Q13873 whole entry): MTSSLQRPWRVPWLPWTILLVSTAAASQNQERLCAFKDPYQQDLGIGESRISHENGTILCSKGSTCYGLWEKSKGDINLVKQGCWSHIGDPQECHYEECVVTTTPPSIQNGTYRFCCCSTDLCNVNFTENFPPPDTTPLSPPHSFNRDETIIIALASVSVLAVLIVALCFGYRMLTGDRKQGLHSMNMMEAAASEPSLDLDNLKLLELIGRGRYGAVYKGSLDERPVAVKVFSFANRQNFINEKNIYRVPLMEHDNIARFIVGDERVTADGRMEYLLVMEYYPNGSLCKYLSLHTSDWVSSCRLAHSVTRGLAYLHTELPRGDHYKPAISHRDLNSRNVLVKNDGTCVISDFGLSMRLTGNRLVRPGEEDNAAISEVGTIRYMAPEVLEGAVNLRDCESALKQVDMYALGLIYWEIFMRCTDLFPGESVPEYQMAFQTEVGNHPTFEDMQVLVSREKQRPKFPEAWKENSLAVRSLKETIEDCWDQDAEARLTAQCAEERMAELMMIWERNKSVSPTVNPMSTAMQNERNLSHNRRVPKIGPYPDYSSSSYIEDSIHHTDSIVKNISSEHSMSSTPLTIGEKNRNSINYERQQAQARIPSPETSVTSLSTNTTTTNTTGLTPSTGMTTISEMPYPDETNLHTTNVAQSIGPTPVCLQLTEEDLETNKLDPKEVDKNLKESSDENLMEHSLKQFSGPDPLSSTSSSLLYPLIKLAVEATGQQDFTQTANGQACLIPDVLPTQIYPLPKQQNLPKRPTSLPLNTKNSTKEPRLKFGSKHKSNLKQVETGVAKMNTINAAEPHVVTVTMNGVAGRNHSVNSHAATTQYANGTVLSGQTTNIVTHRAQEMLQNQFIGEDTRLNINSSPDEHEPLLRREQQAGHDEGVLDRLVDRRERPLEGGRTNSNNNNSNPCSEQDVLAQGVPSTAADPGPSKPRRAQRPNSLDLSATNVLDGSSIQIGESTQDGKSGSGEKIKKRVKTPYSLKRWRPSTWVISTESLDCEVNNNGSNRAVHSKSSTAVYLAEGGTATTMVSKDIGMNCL
# [6] = molecular target: Membrane-associated progesterone receptor component 1 (Homo sapiens, UniProt O00264)
# [7] = molecular target: T4, Serine/threonine-protein kinase 4 (Homo sapiens, UniProt Q13043)
# T4 sequence (Q13043 whole entry): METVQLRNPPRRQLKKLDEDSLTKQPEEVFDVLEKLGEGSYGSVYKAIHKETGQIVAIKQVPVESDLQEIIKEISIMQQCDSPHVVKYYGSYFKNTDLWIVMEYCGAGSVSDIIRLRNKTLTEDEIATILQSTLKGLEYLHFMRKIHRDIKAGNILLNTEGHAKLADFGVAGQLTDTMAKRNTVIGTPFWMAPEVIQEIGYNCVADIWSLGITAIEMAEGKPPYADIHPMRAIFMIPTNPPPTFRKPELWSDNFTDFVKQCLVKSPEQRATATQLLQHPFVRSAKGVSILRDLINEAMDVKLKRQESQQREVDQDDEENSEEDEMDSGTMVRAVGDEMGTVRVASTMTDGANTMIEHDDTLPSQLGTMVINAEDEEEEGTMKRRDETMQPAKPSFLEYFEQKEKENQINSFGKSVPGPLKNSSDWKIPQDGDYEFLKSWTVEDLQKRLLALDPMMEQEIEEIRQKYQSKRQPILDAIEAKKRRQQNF
# Focal adhesion kinase 1 = Focal adhesion kinase 1 (Homo sapiens, UniProt Q05397)
# [8] = molecular target: Receptor-interacting serine/threonine-protein kinase 3 (Homo sapiens, UniProt Q9Y572)
# Also: in the data inactive means no Kd found up to 30 µM.
# Tyrosine-protein kinase FRK, sequence (P42685 whole entry): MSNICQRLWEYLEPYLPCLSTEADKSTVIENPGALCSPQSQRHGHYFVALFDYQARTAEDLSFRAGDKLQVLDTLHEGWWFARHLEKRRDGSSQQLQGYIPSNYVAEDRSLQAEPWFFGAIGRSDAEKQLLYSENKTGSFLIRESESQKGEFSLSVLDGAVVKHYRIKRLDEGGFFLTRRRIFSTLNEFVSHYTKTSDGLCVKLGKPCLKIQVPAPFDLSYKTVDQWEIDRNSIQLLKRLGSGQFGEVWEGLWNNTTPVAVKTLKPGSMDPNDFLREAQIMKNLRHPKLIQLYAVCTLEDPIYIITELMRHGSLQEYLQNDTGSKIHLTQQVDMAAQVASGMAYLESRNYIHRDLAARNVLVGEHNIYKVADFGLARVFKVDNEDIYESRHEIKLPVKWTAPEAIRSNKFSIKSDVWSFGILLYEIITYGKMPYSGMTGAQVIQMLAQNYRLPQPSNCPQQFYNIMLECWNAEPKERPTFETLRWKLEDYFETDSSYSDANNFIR
# Mitotic checkpoint serine/threonine-protein kinase BUB1, sequence (O43683 whole entry, the tested form may be a part): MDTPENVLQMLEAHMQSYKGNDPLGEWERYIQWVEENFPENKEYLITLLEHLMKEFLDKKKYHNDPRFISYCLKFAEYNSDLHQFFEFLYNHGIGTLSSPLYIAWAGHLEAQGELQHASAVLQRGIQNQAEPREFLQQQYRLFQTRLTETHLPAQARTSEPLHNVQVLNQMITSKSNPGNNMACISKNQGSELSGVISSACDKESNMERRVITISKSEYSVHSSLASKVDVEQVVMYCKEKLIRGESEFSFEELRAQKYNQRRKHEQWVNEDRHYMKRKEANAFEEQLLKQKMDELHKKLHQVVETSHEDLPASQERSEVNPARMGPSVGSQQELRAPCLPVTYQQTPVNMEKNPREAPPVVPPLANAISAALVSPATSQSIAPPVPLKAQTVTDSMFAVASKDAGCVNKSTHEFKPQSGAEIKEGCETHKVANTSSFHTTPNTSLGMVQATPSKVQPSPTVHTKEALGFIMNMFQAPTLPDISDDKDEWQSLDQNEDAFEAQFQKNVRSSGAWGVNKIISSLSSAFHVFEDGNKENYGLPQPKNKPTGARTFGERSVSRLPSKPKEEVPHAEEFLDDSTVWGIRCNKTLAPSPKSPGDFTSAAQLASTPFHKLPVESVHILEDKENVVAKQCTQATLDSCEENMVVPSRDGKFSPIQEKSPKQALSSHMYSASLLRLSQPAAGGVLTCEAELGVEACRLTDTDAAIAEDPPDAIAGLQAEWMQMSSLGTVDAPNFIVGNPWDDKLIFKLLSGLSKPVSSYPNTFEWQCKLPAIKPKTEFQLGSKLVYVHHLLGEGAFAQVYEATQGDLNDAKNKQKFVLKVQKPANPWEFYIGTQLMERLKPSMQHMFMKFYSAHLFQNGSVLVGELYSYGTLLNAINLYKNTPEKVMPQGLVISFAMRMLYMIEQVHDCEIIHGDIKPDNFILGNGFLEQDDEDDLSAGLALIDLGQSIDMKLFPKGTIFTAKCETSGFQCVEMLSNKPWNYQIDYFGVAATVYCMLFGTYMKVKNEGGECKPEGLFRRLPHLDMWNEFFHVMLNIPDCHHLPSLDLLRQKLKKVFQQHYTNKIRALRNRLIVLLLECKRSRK
# Membrane-associated progesterone receptor component 1, sequence (O00264 whole entry): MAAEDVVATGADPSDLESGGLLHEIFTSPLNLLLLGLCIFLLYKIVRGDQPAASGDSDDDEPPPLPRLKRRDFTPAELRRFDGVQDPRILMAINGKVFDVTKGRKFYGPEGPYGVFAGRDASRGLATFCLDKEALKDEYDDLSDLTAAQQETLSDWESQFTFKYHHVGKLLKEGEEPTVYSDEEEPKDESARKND
# Focal adhesion kinase 1, sequence (Q05397 whole entry): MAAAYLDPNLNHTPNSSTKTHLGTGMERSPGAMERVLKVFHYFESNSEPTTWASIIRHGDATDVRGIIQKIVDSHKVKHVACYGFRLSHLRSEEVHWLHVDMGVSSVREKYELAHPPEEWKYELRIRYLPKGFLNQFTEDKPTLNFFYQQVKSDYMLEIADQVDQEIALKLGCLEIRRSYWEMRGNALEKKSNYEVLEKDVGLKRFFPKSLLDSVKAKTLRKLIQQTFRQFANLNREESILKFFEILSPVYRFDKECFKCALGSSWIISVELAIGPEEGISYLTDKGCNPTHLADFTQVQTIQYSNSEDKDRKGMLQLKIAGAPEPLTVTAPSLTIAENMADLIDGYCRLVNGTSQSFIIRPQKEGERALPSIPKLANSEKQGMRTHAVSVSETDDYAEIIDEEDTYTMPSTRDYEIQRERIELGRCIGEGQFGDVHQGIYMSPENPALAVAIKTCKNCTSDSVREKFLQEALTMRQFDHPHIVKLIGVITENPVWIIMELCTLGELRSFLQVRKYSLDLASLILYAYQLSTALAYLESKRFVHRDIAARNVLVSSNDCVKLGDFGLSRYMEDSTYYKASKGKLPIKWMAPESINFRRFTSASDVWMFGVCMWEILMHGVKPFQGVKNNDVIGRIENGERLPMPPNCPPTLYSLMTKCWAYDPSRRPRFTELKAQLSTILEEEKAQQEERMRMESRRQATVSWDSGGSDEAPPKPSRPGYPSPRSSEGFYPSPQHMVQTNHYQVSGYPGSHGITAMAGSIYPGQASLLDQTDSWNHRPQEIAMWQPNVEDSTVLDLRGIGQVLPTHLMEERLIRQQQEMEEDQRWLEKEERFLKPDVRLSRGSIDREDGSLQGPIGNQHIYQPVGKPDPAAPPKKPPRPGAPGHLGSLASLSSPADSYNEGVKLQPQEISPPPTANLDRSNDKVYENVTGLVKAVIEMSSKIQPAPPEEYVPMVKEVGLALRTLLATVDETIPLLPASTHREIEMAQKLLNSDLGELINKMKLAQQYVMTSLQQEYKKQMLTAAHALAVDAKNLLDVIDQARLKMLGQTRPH
# Receptor-interacting serine/threonine-protein kinase 3, sequence (Q9Y572 whole entry): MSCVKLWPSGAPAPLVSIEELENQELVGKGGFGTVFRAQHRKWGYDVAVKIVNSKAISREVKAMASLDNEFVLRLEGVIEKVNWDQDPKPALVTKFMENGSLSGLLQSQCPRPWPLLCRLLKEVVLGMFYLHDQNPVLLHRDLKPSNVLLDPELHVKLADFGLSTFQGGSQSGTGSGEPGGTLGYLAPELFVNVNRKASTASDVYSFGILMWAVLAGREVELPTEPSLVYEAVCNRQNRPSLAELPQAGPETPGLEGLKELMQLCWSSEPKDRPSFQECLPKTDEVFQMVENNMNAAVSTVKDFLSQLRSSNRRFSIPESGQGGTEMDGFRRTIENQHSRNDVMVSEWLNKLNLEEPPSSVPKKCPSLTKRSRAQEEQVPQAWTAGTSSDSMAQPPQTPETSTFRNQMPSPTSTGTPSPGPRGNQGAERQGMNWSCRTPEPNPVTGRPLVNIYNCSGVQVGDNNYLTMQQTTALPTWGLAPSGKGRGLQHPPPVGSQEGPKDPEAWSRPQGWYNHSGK
SMILES,Kd [1],Kd [2],Kd [3],Kd [4],Kd [5],Kd [6],Kd [7],Kd (Focal adhesion kinase 1),Kd [8],pKd [5],pKd [2]
COCc1c(-c2ccc(NC(=O)Nc3cc(C(F)(F)F)ccc3F)c(F)c2)c2c(N)ncnn2c1CN1CCOCC1,> 30 µM (inactive),> 30 µM (inactive),1.86 µM (active),> 30 µM (inactive),> 30 µM (inactive),> 30 µM (inactive),> 30 µM (inactive),> 30 µM (inactive),> 30 µM (inactive),–,–
Cc1nc(NC(=O)N2CCC[C@H]2C(N)=O)sc1-c1ccnc(C(C)(C)C(F)(F)F)c1 [ALPELISIB],–,> 30 µM (inactive),> 30 µM (inactive),> 30 µM (inactive),> 30 µM (inactive),> 30 µM (inactive),> 30 µM (inactive),> 30 µM (inactive),> 30 µM (inactive),–,–
NC(=O)Nc1cc(-c2cccc(F)c2)sc1C(=O)N[C@H]1CCCNC1 [AZD-7762],–,> 30 µM (inactive),1.21 µM (active),–,> 30 µM (inactive),> 30 µM (inactive),0.056 µM (active),0.948 µM (active),> 30 µM (inactive),–,–
O=C(Nc1cc(C(F)(F)F)cc(C(F)(F)F)c1)c1cc(Cl)ccc1O [IMD-0354],> 30 µM (inactive),> 30 µM (inactive),> 30 µM (inactive),–,> 30 µM (inactive),> 30 µM (inactive),> 30 µM (inactive),> 30 µM (inactive),> 30 µM (inactive),–,–
CNC(=O)c1nn(C)c2c1C(C)(C)Cc1cnc(Nc3ccc(N4CCN(C)CC4)cc3)nc1-2 [MILCICLIB],–,> 30 µM (inactive),3.02 µM (active),26.1 µM (active),> 30 µM (inactive),> 30 µM (inactive),> 30 µM (inactive),> 30 µM (inactive),> 30 µM (inactive),–,–
COc1ncc(-c2ccc3nccc(-c4ccnnc4)c3c2)cc1NS(=O)(=O)c1ccc(F)cc1F [OMIPALISIB],–,> 30 µM (inactive),> 30 µM (inactive),> 30 µM (inactive),> 30 µM (inactive),> 30 µM (inactive),> 30 µM (inactive),> 30 µM (inactive),> 30 µM (inactive),–,–
CCOc1cc2ncc(C#N)c(Nc3ccc(F)c(Cl)c3)c2cc1NC(=O)/C=C/CN(C)C [PELITINIB],> 30 µM (inactive),> 30 µM (inactive),> 30 µM (inactive),> 30 µM (inactive),> 30 µM (inactive),> 30 µM (inactive),–,–,> 30 µM (inactive),–,–
CCCCCCCCCCCCCCCCCCOP(=O)([O-])OC1CC[N+](C)(C)CC1 [PERIFOSINE],–,> 30 µM (inactive),> 30 µM (inactive),> 30 µM (inactive),> 30 µM (inactive),> 30 µM (inactive),> 30 µM (inactive),> 30 µM (inactive),> 30 µM (inactive),–,–
CC(=O)NCC(=O)N1[C@@H]2CC[C@H]1c1ccc(Nc3ncc(C(F)(F)F)c(NC4CCC4)n3)cc12 [PF-03814735],> 30 µM (inactive),> 30 µM (inactive),–,–,–,> 30 µM (inactive),0.828 µM (active),–,> 30 µM (inactive),8.10,–
CN1C/C=C/CCOc2cccc(c2)-c2ccnc(n2)Nc2cccc(c2)C1 [ZOTIRACICLIB],–,–,> 30 µM (inactive),> 30 µM (inactive),> 30 µM (inactive),> 30 µM (inactive),1.8 µM (active),> 30 µM (inactive),> 30 µM (inactive),–,7.64

# The next lines start with the values.
Kd [1],Kd [2],Kd [3],Kd [4],Kd [5],Kd [6],Kd [7],Kd (Focal adhesion kinase 1),Kd [8],pKd [5],pKd [2],SMILES
–,> 30 µM (inactive),> 30 µM (inactive),> 30 µM (inactive),> 30 µM (inactive),> 30 µM (inactive),> 30 µM (inactive),> 30 µM (inactive),> 30 µM (inactive),–,–,Cc1cc(C(=O)NOCCO)c(Nc2ccc(I)cc2F)n(C)c1=O [AZD-8330]
> 30 µM (inactive),> 30 µM (inactive),0.222 µM (active),2.13 µM (active),> 30 µM (inactive),> 30 µM (inactive),–,0.264 µM (active),> 30 µM (inactive),–,–,CCS(=O)(=O)c1cccc(-c2cc(C(=O)NC3CCN(C)CC3)c(C)c3[nH]c4ncc(C)cc4c23)c1 [TAK-901]
